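Following 48 hours of exposure in 96-well plates, responses at five concentrations were used to interpolate endpoints linearly. Here, GI50 denotes the concentration required for 50% inhibition of growth.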 Active and inactive are the calls of the source. Cut-off read from the data, not from the text of the source: active = GI50 up to about 1.1 µM and inactive = higher.
Assays:
Assay in all cases: NCI tumour cell line growth inhibition, 48 h
786-0 = tested on: 786-0
A498 = tested on: A498
A549 = tested on: A549
ACHN = tested on: ACHN
CAKI-1 = tested on: CAKI-1
CCRF-CEM = tested on: CCRF-CEM
COLO 205 = tested on: COLO 205
DLD-1 = tested on: DLD-1
DMS-114 = tested on: DMS-114
DMS-273 = tested on: DMS-273
DU-145 = tested on: DU-145
EKVX = tested on: EKVX
HCC 2998 = tested on: HCC 2998
HCT-116 = tested on: HCT-116
HCT-15 = tested on: HCT-15
HL-60 = tested on: HL-60
HOP-18 = tested on: HOP-18
HOP-62 = tested on: HOP-62
HOP-92 = tested on: HOP-92
HT-29 = tested on: HT-29
Hs-578T = tested on: Hs-578T
IGROV-1 = tested on: IGROV-1
K562 = tested on: K562
KM-20L2 = tested on: KM-20L2
KM12 = tested on: KM12
LOX IMVI = tested on: LOX IMVI
LXFL 529 = tested on: LXFL 529
M14 = tested on: M14
M19-MEL = tested on: M19-MEL
MDA-MB-231 = tested on: MDA-MB-231
MDA-MB-435 = tested on: MDA-MB-435
MDA-N = tested on: MDA-N
MOLT-4 = tested on: MOLT-4
Malme-3M = tested on: Malme-3M
NCI-H226 = tested on: NCI-H226
NCI-H23 = tested on: NCI-H23
NCI-H460 = tested on: NCI-H460
NCI-H522 = tested on: NCI-H522
NCI/ADR-RES = tested on: NCI/ADR-RES
OVCAR-3 = tested on: OVCAR-3
OVCAR-4 = tested on: OVCAR-4
OVCAR-5 = tested on: OVCAR-5
OVCAR-8 = tested on: OVCAR-8
PC-3 = tested on: PC-3
RPMI-8226 = tested on: RPMI-8226
RXF 393 = tested on: RXF 393
SF-268 = tested on: SF-268
SF-295 = tested on: SF-295
SF-539 = tested on: SF-539
SK-MEL-28 = tested on: SK-MEL-28
SK-MEL-2 = tested on: SK-MEL-2
SK-MEL-5 = tested on: SK-MEL-5
SK-OV-3 = tested on: SK-OV-3
SN12C = tested on: SN12C
SNB-19 = tested on: SNB-19
SNB-75 = tested on: SNB-75
SNB-78 = tested on: SNB-78
SR = tested on: SR
SW-620 = tested on: SW-620
T47D = tested on: T47D
TK-10 = tested on: TK-10
U-251 = tested on: U-251
UACC-257 = tested on: UACC-257
UACC-62 = tested on: UACC-62
UO-31 = tested on: UO-31
BT-549 = tested on: BT-549
MCF7 = tested on: MCF7

`CC1=CC2=C(OCO1)C(=O)c1ccccc1C2=O` was tested, and the GI50 (786-0) was 12.8 µM (inactive), the GI50 (A498) was 14.5 µM (inactive) and the GI50 (A549) was 6.08 µM (inactive). For the same compound, the GI50 (ACHN) was 3.76 µM (inactive), the GI50 (CAKI-1) was 8.39 µM (inactive) and the GI50 (CCRF-CEM) was 10.1 µM (inactive). For the same compound, the GI50 (COLO 205) was 5.86 µM (inactive), the GI50 (DLD-1) was 21.5 µM (inactive) and the GI50 (DMS-114) was 3.35 µM (inactive). The GI50 (DMS-273) was 10.5 µM (inactive), the GI50 (DU-145) was 2.16 µM (inactive) and the GI50 (EKVX) was 46.7 µM (inactive). The GI50 (HCC 2998) was 30.5 µM (inactive), the GI50 (HCT-116) was 7.16 µM (inactive) and the GI50 (HCT-15) was 14.8 µM. The GI50 (HL-60) was 3.95 µM (inactive), the GI50 (HOP-18) was 12.4 µM (inactive) and the GI50 (HOP-62) was 6.87 µM (inactive). The GI50 (HOP-92) was 10.4 µM (inactive), the GI50 (HT-29) was 7.4 µM (inactive) and the GI50 (Hs-578T) was 1.67 µM (inactive). The GI50 (IGROV-1) was 11 µM (inactive), the GI50 (K562) was 6.87 µM (inactive) and the GI50 (KM-20L2) was 22.9 µM (inactive). The GI50 (KM12) was 6.71 µM (inactive), the GI50 (LOX IMVI) was 1.02 µM (active) and the GI50 (LXFL 529) was 21.7 µM (inactive). The GI50 (M14) was 4.73 µM (inactive), the GI50 (M19-MEL) was 1.79 µM (inactive) and the GI50 (MDA-MB-231) was 4.13 µM (inactive). The GI50 (MDA-MB-435) was 1.46 µM (inactive), the GI50 (MDA-N) was 0.408 µM (active) and the GI50 (MOLT-4) was 6.84 µM (inactive). For the same compound, the GI50 (Malme-3M) was 2.51 µM (inactive), the GI50 (NCI-H226) was 10.4 µM (inactive) and the GI50 (NCI-H23) was 3.27 µM (inactive). The GI50 (NCI-H460) was 7.11 µM (inactive), the GI50 (NCI-H522) was 2.57 µM (inactive) and the GI50 (NCI/ADR-RES) was 3.31 µM (inactive). For the same compound, the GI50 (OVCAR-3) was 5.4 µM (inactive), the GI50 (OVCAR-4) was 3.73 µM (inactive) and the GI50 (OVCAR-5) was 6.21 µM (inactive). The GI50 (OVCAR-8) was 8.87 µM (inactive), the GI50 (PC-3) was 3.18 µM (inactive) and the GI50 (RPMI-8226) was 4.52 µM (inactive). For the same compound, the GI50 (RXF 393) was 4.61 µM (inactive), the GI50 (SF-268) was 7.5 µM (inactive) and the GI50 (SF-295) was 4.17 µM (inactive). For the same compound, the GI50 (SF-539) was 6.14 µM (inactive), the GI50 (SK-MEL-28) was 4.86 µM (inactive) and the GI50 (SK-MEL-2) was 0.652 µM (active). For the same compound, the GI50 (SK-MEL-5) was 1.5 µM (inactive), the GI50 (SK-OV-3) was 13.3 µM (inactive) and the GI50 (SN12C) was 5.68 µM (inactive). The GI50 (SNB-19) was 9.59 µM (inactive), the GI50 (SNB-75) was 3.66 µM (inactive) and the GI50 (SNB-78) was 33.1 µM (inactive). For the same compound, the GI50 (SR) was 7.82 µM (inactive), the GI50 (SW-620) was 8.09 µM (inactive) and the GI50 (T47D) was 2.43 µM (inactive). The GI50 (TK-10) was 28.1 µM (inactive), the GI50 (U-251) was 1.36 µM (inactive) and the GI50 (UACC-257) was 2.79 µM (inactive). The GI50 (UACC-62) was 5.11 µM (inactive) and the GI50 (UO-31) was 7.94 µM (inactive).
With `O=C(O)CCC(O)=C1S(=O)(=O)OCCOS1(=O)=O` the GI50 (786-0) was > 100 µM (inactive), the GI50 (A498) was > 100 µM (inactive) and the GI50 (A549) was > 100 µM (inactive). For the same compound, the GI50 (ACHN) was > 100 µM (inactive), the GI50 (BT-549) was > 100 µM (inactive) and the GI50 (CAKI-1) was > 100 µM (inactive). The GI50 (COLO 205) was > 100 µM (inactive), the GI50 (DLD-1) was > 100 µM (inactive) and the GI50 (DMS-114) was > 100 µM (inactive). For the same compound, the GI50 (DMS-273) was > 100 µM (inactive), the GI50 (DU-145) was > 100 µM (inactive) and the GI50 (EKVX) was > 100 µM (inactive). The GI50 (HCC 2998) was > 100 µM (inactive), the GI50 (HCT-116) was > 100 µM (inactive) and the GI50 (HCT-15) was > 100 µM. The GI50 (HOP-18) was > 100 µM (inactive), the GI50 (HOP-62) was > 100 µM (inactive) and the GI50 (HOP-92) was > 100 µM (inactive). For the same compound, the GI50 (HT-29) was > 100 µM (inactive), the GI50 (Hs-578T) was > 100 µM (inactive) and the GI50 (IGROV-1) was > 100 µM (inactive). The GI50 (K562) was > 100 µM (inactive), the GI50 (KM-20L2) was > 100 µM (inactive) and the GI50 (KM12) was > 100 µM (inactive). For the same compound, the GI50 (LOX IMVI) was > 100 µM (inactive), the GI50 (LXFL 529) was > 100 µM (inactive) and the GI50 (M14) was > 100 µM (inactive). For the same compound, the GI50 (M19-MEL) was > 100 µM (inactive), the GI50 (MCF7) was > 100 µM (inactive) and the GI50 (MDA-MB-231) was > 100 µM (inactive). The GI50 (MDA-MB-435) was > 100 µM (inactive), the GI50 (MDA-N) was > 100 µM (inactive) and the GI50 (MOLT-4) was > 100 µM (inactive). For the same compound, the GI50 (Malme-3M) was > 100 µM (inactive), the GI50 (NCI-H226) was > 100 µM (inactive) and the GI50 (NCI-H23) was > 100 µM (inactive). The GI50 (NCI-H460) was > 100 µM (inactive), the GI50 (NCI-H522) was > 100 µM (inactive) and the GI50 (NCI/ADR-RES) was > 100 µM (inactive). The GI50 (OVCAR-3) was > 100 µM (inactive), the GI50 (OVCAR-4) was > 100 µM (inactive) and the GI50 (OVCAR-5) was > 100 µM (inactive). The GI50 (OVCAR-8) was > 100 µM (inactive), the GI50 (PC-3) was > 100 µM (inactive) and the GI50 (RPMI-8226) was > 100 µM (inactive). The GI50 (RXF 393) was > 100 µM (inactive), the GI50 (SF-268) was > 100 µM (inactive) and the GI50 (SF-295) was > 100 µM (inactive). The GI50 (SF-539) was > 100 µM (inactive), the GI50 (SK-MEL-28) was > 100 µM (inactive) and the GI50 (SK-MEL-2) was > 100 µM (inactive). The GI50 (SK-MEL-5) was > 100 µM (inactive), the GI50 (SK-OV-3) was > 100 µM (inactive) and the GI50 (SN12C) was > 100 µM (inactive). The GI50 (SNB-19) was > 100 µM (inactive), the GI50 (SNB-75) was > 100 µM (inactive) and the GI50 (SNB-78) was > 100 µM (inactive). The GI50 (SR) was 43.7 µM (inactive), the GI50 (SW-620) was > 100 µM (inactive) and the GI50 (T47D) was > 100 µM (inactive). For the same compound, the GI50 (TK-10) was > 100 µM (inactive), the GI50 (U-251) was > 100 µM (inactive) and the GI50 (UACC-257) was > 100 µM (inactive). The GI50 (UACC-62) was > 100 µM (inactive) and the GI50 (UO-31) was > 100 µM (inactive).
